Assay results as given in patent publication US9045415B2, “Targeting of EWS-FLI1 as anti-tumor therapy” (Georgetown University, priority 2006, dated 2015).

Tests used:
ESFT cell line CHP-100 = test: CHP-100 tumors in nude mice treated with YK-4-275; format: in vivo; details: treated for 4 days when tumors palpable
Method: Nude mice were inoculated with ESFT cell line CHP-100. When tumors were palpable, animals were treated with YK-4-275 (NSC635437) for 4 days. Curves show tumor volumes over time.

[1] = test system: neuroblastoma SKNAS cells; test: Monolayer cell growth, neuroblastoma; format: cell-based; details: SK-N-AS, 72 hours continuous presence
Text: FIGS. 8A-E show E9RP inhibits ESFT cell growth. In FIGS. 8A and 8B, E9RP is the peptide region of RHA (SEQ ID NO:29) fused to the Penetratin peptide (from the Antennapedia homeodomain; SEQ ID NO:34) and contains amino-terminal fluorescein (FITC). […] Neither lipids nor electricity were used for transduction of peptides into cells. Confocal microscopy identified peptide throughout cells with nuclear uptake. Nuclear uptake was confirmed by DAPI staining. […] Cell lines were placed in 96-well plates with either vehicle alone (●), or E9RP (10 μM) on days 0, 3 and 5 (▴). No lipid or other transfection method was utilized. This represents two experiments with similar results. FIG. 8D depicts dose response of ESFT 1 to either wild-type or single amino-acid mutant peptides. (▪) wild-type E9RP, (E9R (SEQ ID NO:29) fused to the Penetratin peptide (SEQ ID NO:34)), (▾)(E9RP (P2A peptide (SEQ ID NO:30) fused to the Penetratin peptide (SEQ ID NO:34)), (▴)E9RP (D5A peptide (SEQ ID NO:31) fused to the Penetratin peptide (SEQ ID NO:34)). Growth normalized to treating cells with the 16 aa Antp sequence alone (SEQ ID NO:34). FIG. 8E is a comparison of wild-type versus mutant peptides in ESFT and NB cells.
In FIG. 13A, recombinant EWS-FLI1 was treated with NSC635437 for 30 minutes. GST-RHA (630-1020) was added and the complexes were then precipitated with antibody to EWS-FLI1 and Protein G beads. Resolved complexes showing the immunoprecipitated complex control without compound are in lanes 3 (0.1% DMSO) and 5 (0.01% DMSO). […] ESFT TC32 (◯) and neuroblastoma SK-N-AS (▪) were grown for 72 hours in the continuous presence of NSC635437. Cells were incubated in MTT reagent for 4 hours and the dried precipitate was dissolved isopropanol and the absorbance read at 570 nm. Each cell line was standardized to the growth of the DMSO control.
FIG. 30 provides data to show E9R peptide prevents EWS-FLI1 binding to RHA with specific detrimental effects upon ESFT growth and transformation. […] Scale bar equals 20 μm. […] Only expression of EGFP-E9R in TC71 reduced anchorage independent growth. […] Scale bar equals 20 μm.

[2] = test system: cyclin D levels in four non-EWS-FLI1 containing cell lines; test: Cyclin D immunoblot, non-EWS-FLI1 containing cell lines; format: cell-based; details: 10 μM overnight
[3] = test system: EWS-FLI1 responsive NROB1 promoter; test: Luciferase reporter assay of EWS-FLI1 responsive NROB1 promoter in COS7 cells; format: cell-based; details: 3 and 10 μM, 18 hours
Method: FIG. 32 provides data showing YK-4-279 reduces EWS-FLI1 functional activity. FIG. 32A concerns TC32 cells that were treated with YK-4-279 and resolved protein lysates and that were immunoblotted for co-precipitated RHA (top), EWS-FLI1 (middle), or total RHA (bottom).
EGFP-E9R fusion constructs prepared as published (Frangioni, J. V. & Neel, B. G. Use of a general purpose mammalian expression vector for studying intracellular protein targeting: identification of critical residues in the nuclear lamin A/C nuclear localization signal. J Cell Sci 105 (Pt 2), 481-488 (1993)). We transiently transfect the NR0B131 luciferase reporter and full-length EWS-FLI1 into COS-7 cells with Fugene-6 (Roche) and luciferase assay performed per manufacturer's protocol (Dual Luciferase Kit, Promega). Six hours following transfection, cells were treated with either 3 or 10 μM YK-4-279. Cell lysates luciferase activity levels were standardized to renilla activity from a non-affected promoter and plotted as relative luciferase activity (RLA).

EWS-FLI1 = test: SPR displacement assay of E9R from EWS-FLI1; format: binding
Text: FIG. 31 provides data showing a small molecule binding to EWS-FLI1 and displaces E9R from EWS-FLI1. […] Aromatic functionalization produced YK-4-279 a para-methoxy derivative of NSC635437. […] A FLI1 antibody complexed EWS-FLI1 and precipitated it from the solution.
An aromatic optimization strategy was used to design analogs to improve upon the activity of NSC635437.

[4] = test system: cyclin D levels in TC32 cells; test: Cyclin D immunoblot, TC32 cells; format: cell-based; details: TC32 cells treated for 14 hours
GUES1 = test: Cell growth, primary ESFT line GUES1; format: cell-based; details: Homo sapiens, 72 h; 3 days; read-out: anti-proliferative IC50
Method: FIG. 33 provides data showing YK-4-279 is potent and specific inhibitor of ESFT. […] Cell number was measured by MTT or WST reduction after seven days in culture. […] FIG. 33D cell lines expressing EWS-FLI1 compared to non-EWS-FLI1 malignant cell lines following 3 days in culture to establish the IC50 using WST assay. […] Graph plots level of fluorescence in treated divided by untreated lysate. […] Scale bar equals 200 μm.

NFκB responsive promoter = test: NFκB responsive reporter in COS7 cells activated with PMA; format: cell-based; details: after PMA
Method: FIG. 38A provides data showing COST cells transfected with an NFκB reporter construct followed by stimulation with PMA. Cells were treated with YK-4-279 following PMA treatment. Cell lysates were analyzed for NFκB induced luciferase activity as standardized to LTR activated renilla luciferase.

TC32 = test: Nuclear fragmentation (DAPI), TC32; format: cell-based; details: 50 μM, 6 hours
Method: Cells were treated for 24 hours with 10 μM YK-4-279. The Caspase-3 substrate DEVD-AMC was incubated with equal amounts of protein lysate and fluorescence from cleaved substrate measured in a fluorimeter. TC32 and non-transformed cells HEK-293, HFK, and HEC were treated for 6 hours with high dose (50 μM) YK-4-279. DAPI stained cells were photographed at 600× using inverted fluorescence microscope.

Row | Structure (SMILES) | tumor growth (ESFT cell line CHP-100) | cell growth (MTT) [1] | cyclin D levels [2] | NROB1 promoter activity [3] | binding of E9R to EWS-FLI1 (EWS-FLI1; 32 μM E9R with 10 μM YK-4-279) | binding of E9R to EWS-FLI1 (EWS-FLI1; 64 μM E9R with 10 μM YK-4-279) | cyclin D levels [4] | IC50 (GUES1) | NFκB responsive promoter activity (NFκB responsive promoter) | apoptosis (nuclear fragmentation) (TC32)
1 | O=C(CC1(O)C(=O)Nc2c(Cl)ccc(Cl)c21)c1ccc(Cl)cc1 (stereo not shown) [NSC635437, 4,7-Dichloro-3-[2-(4-chlorophenyl)-2-oxoethyl]-3-hydroxyl-1,3-dihydro-2H-indol-2-one] | inhibition of tumor growth | not neuroblastoma cell growth | – | – | – | – | – | – | – | –
2 | COc1ccc(C(=O)CC2(O)C(=O)Nc3c(Cl)ccc(Cl)c32)cc1 (stereo not shown) [YK-4-279, 4,7-Dichloro-3-hydroxy-3-[2-(4-methoxyphenyl)-2-oxoethyl]-1,3-dihydro-2H-indol-2-one] | – | – | did not affect cyclin D levels | dose-dependent decrease in promoter activity | 5 R.U. | 7 R.U. | nearly eliminated cyclin D levels | 8 µM | did not affect the NFκB responsive promoter | significant apoptosis
